Measured values taken from PubChem BioAssay AID1963852 (Molecular Pharmacology Branch, DTP, NCI, 2024).

Test system: 282377-053-R-J1-PDC complex spheroid viability
Test: Anticancer human tumor 282377-053-R-J1-PDC patient-derived colon adenocarcinoma cell line growth inhibition [POLQ]
Settings: for IC50: curve of first compound; for viability, T/C: stronger effect = lower value; active means viability on the fitted dose curve at most 10% of control; inactive means the rest
In short: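 Three-cell-type spheroids modelling solid tumor plus stroma served as the readout system; POL inhibitors were tested individually and in combination, concentration ranges set by clinical Cmax where known.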

[1] = second compound 0.0316 µM, first compound 0.0316 µM
[2] = second compound 0.0316 µM, first compound 0.1 µM
[3] = second compound 0.0316 µM, first compound 0.316 µM
[4] = second compound 0.0316 µM, first compound 1 µM
[5] = second compound 0.0316 µM, first compound 3.16 µM
[6] = second compound 0.0316 µM, first compound 10 µM
[7] = second compound 0.1 µM, first compound 0.0316 µM
[8] = second compound 0.1 µM, first compound 0.1 µM
[9] = second compound 0.1 µM, first compound 0.316 µM
[10] = second compound 0.1 µM, first compound 1 µM
[11] = second compound 0.1 µM, first compound 3.16 µM
[12] = second compound 0.1 µM, first compound 10 µM
[13] = second compound 0.316 µM, first compound 0.0316 µM
[14] = second compound 0.316 µM, first compound 0.1 µM
[15] = second compound 0.316 µM, first compound 0.316 µM
[16] = second compound 0.316 µM, first compound 1 µM
[17] = second compound 0.316 µM, first compound 3.16 µM
[18] = second compound 0.316 µM, first compound 10 µM
[19] = second compound 1 µM, first compound 0.0316 µM
[20] = second compound 1 µM, first compound 0.1 µM
[21] = second compound 1 µM, first compound 0.316 µM
[22] = second compound 1 µM, first compound 1 µM
[23] = second compound 1 µM, first compound 3.16 µM
[24] = second compound 1 µM, first compound 10 µM
[25] = second compound 3.16 µM, first compound 0.0316 µM
[26] = second compound 3.16 µM, first compound 0.1 µM
[27] = second compound 3.16 µM, first compound 0.316 µM
[28] = second compound 3.16 µM, first compound 1 µM
[29] = second compound 3.16 µM, first compound 3.16 µM
[30] = second compound 3.16 µM, first compound 10 µM
[31] = second compound 10 µM, first compound 0.0316 µM
[32] = second compound 10 µM, first compound 0.1 µM
[33] = second compound 10 µM, first compound 0.316 µM
[34] = second compound 10 µM, first compound 1 µM
[35] = second compound 10 µM, first compound 3.16 µM
[36] = second compound 10 µM, first compound 10 µM
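Further: spheroids exposed to compounds for seven days.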
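Wherever viability, T/C is given: 100% = DMSO vehicle control viability.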

C#Cc1c(F)ccc2cc(O)cc(-c3ncc4c(N5CC6CCC(C5)N6)nc(OCC56CCCN5CC(F)C6)nc4c3F)c12 (stereo not given) + COC1C(OC(N)=O)C(O)C(Oc2ccc3c(O)c(NC(=O)c4ccc(O)c(CC=C(C)C)c4)c(=O)oc3c2C)OC1(C)C
inactive: viability, T/C [1] 111% | viability, T/C [2] 115% | viability, T/C [3] 108% | viability, T/C [4] 117% | viability, T/C [5] 88.8% | viability, T/C [6] 96.9% | viability, T/C [7] 94.4% | viability, T/C [8] 113% | viability, T/C [9] 107% | viability, T/C [10] 90% | viability, T/C [11] 96.9% | viability, T/C [12] 88.1% | viability, T/C [13] 94% | viability, T/C [14] 120% | viability, T/C [15] 93.7% | viability, T/C [16] 91.5% | viability, T/C [17] 92.6% | viability, T/C [18] 85.6% | viability, T/C [19] 104% | viability, T/C [20] 96.5% | viability, T/C [21] 98.9% | viability, T/C [22] 82.5% | viability, T/C [23] 112% | viability, T/C [24] 87.8% | viability, T/C [25] 104% | viability, T/C [26] 88.3% | viability, T/C [27] 95.4% | viability, T/C [28] 82.3% | viability, T/C [29] 92.1% | viability, T/C [30] 87.7% | viability, T/C [31] 100% | viability, T/C [32] 91.2% | viability, T/C [33] 102% | viability, T/C [34] 93.7% | viability, T/C [35] 74.8% | viability, T/C [36] 86.8%
> 10 µM: IC50 (second compound 0.0316 µM) | IC50 (second compound 0.1 µM) | IC50 (second compound 0.316 µM) | IC50 (second compound 1 µM) | IC50 (second compound 3.16 µM) | IC50 (second compound 10 µM)

C=CC(=O)N1CCN(c2nc(=O)n(-c3c(C)ccnc3C(C)C)c3nc(-c4c(O)cccc4F)c(F)cc23)C(C)C1 (stereo not given) + COC1C(OC(N)=O)C(O)C(Oc2ccc3c(O)c(NC(=O)c4ccc(O)c(CC=C(C)C)c4)c(=O)oc3c2C)OC1(C)C
inactive: viability, T/C [1] 114% | viability, T/C [2] 103% | viability, T/C [3] 102% | viability, T/C [4] 94.9% | viability, T/C [5] 111% | viability, T/C [6] 94.4% | viability, T/C [7] 107% | viability, T/C [8] 116% | viability, T/C [9] 96.5% | viability, T/C [10] 115% | viability, T/C [11] 108% | viability, T/C [12] 102% | viability, T/C [13] 105% | viability, T/C [14] 124% | viability, T/C [15] 113% | viability, T/C [16] 100% | viability, T/C [17] 113% | viability, T/C [18] 77% | viability, T/C [19] 94.9% | viability, T/C [20] 114% | viability, T/C [21] 114% | viability, T/C [22] 98.1% | viability, T/C [23] 89.6% | viability, T/C [24] 85.4% | viability, T/C [25] 115% | viability, T/C [26] 113% | viability, T/C [27] 102% | viability, T/C [28] 90.1% | viability, T/C [29] 95.2% | viability, T/C [30] 90.5% | viability, T/C [31] 106% | viability, T/C [32] 109% | viability, T/C [33] 105% | viability, T/C [34] 114% | viability, T/C [35] 112% | viability, T/C [36] 111%
> 10 µM: IC50 (second compound 0.0316 µM) | IC50 (second compound 0.1 µM) | IC50 (second compound 0.316 µM) | IC50 (second compound 1 µM) | IC50 (second compound 3.16 µM) | IC50 (second compound 10 µM)

CC(C)n1c(=O)n(C)c2cnc3cc(F)c(-c4ccc(OCCCN5CCCCC5)nc4)cc3c21 + COC1C(OC(N)=O)C(O)C(Oc2ccc3c(O)c(NC(=O)c4ccc(O)c(CC=C(C)C)c4)c(=O)oc3c2C)OC1(C)C
> 10 µM: IC50 (second compound 0.0316 µM) | IC50 (second compound 0.1 µM) | IC50 (second compound 0.316 µM) | IC50 (second compound 1 µM) | IC50 (second compound 3.16 µM) | IC50 (second compound 10 µM)
inactive: viability, T/C [1] 116% | viability, T/C [2] 125% | viability, T/C [3] 113% | viability, T/C [4] 104% | viability, T/C [5] 112% | viability, T/C [6] 120% | viability, T/C [7] 107% | viability, T/C [8] 116% | viability, T/C [9] 110% | viability, T/C [10] 104% | viability, T/C [11] 118% | viability, T/C [12] 103% | viability, T/C [13] 108% | viability, T/C [14] 93% | viability, T/C [15] 105% | viability, T/C [16] 108% | viability, T/C [17] 107% | viability, T/C [18] 89.6% | viability, T/C [19] 112% | viability, T/C [20] 88.4% | viability, T/C [21] 99.5% | viability, T/C [22] 106% | viability, T/C [23] 119% | viability, T/C [24] 78.4% | viability, T/C [25] 113% | viability, T/C [26] 114% | viability, T/C [27] 108% | viability, T/C [28] 114% | viability, T/C [29] 106% | viability, T/C [30] 101% | viability, T/C [31] 98.2% | viability, T/C [32] 104% | viability, T/C [33] 93.8% | viability, T/C [34] 99.2% | viability, T/C [35] 95.8% | viability, T/C [36] 98.8%

CCc1cc2c(N3CCc4c(cc(Cn5ccnc5)cc4-c4cn(C)nc4C(F)(F)F)C3=O)ccnc2c(OC)n1 + COC1C(OC(N)=O)C(O)C(Oc2ccc3c(O)c(NC(=O)c4ccc(O)c(CC=C(C)C)c4)c(=O)oc3c2C)OC1(C)C
inactive: viability, T/C [1] 114% | viability, T/C [2] 132% | viability, T/C [3] 139% | viability, T/C [4] 144% | viability, T/C [5] 135% | viability, T/C [6] 72.3% | viability, T/C [7] 120% | viability, T/C [8] 153% | viability, T/C [9] 140% | viability, T/C [10] 146% | viability, T/C [11] 118% | viability, T/C [12] 90.6% | viability, T/C [13] 147% | viability, T/C [14] 110% | viability, T/C [15] 132% | viability, T/C [16] 130% | viability, T/C [17] 127% | viability, T/C [18] 78% | viability, T/C [19] 124% | viability, T/C [20] 109% | viability, T/C [21] 123% | viability, T/C [22] 134% | viability, T/C [23] 132% | viability, T/C [24] 95.4% | viability, T/C [25] 124% | viability, T/C [26] 124% | viability, T/C [27] 150% | viability, T/C [28] 145% | viability, T/C [29] 118% | viability, T/C [30] 86.9% | viability, T/C [31] 115% | viability, T/C [32] 127% | viability, T/C [33] 144% | viability, T/C [34] 161% | viability, T/C [35] 113% | viability, T/C [36] 92.9%
> 10 µM: IC50 (second compound 0.0316 µM) | IC50 (second compound 0.1 µM) | IC50 (second compound 0.316 µM) | IC50 (second compound 1 µM) | IC50 (second compound 3.16 µM) | IC50 (second compound 10 µM)

COc1cc2cc(C(=O)CCC(=O)O)sc2cc1OC + COC1C(OC(N)=O)C(O)C(Oc2ccc3c(O)c(NC(=O)c4ccc(O)c(CC=C(C)C)c4)c(=O)oc3c2C)OC1(C)C
> 10 µM: IC50 (second compound 0.0316 µM) | IC50 (second compound 0.1 µM) | IC50 (second compound 0.316 µM) | IC50 (second compound 1 µM) | IC50 (second compound 3.16 µM) | IC50 (second compound 10 µM)
inactive: viability, T/C [1] 118% | viability, T/C [2] 103% | viability, T/C [3] 128% | viability, T/C [4] 104% | viability, T/C [5] 113% | viability, T/C [6] 99.3% | viability, T/C [7] 105% | viability, T/C [8] 105% | viability, T/C [9] 116% | viability, T/C [10] 107% | viability, T/C [11] 99.1% | viability, T/C [12] 88.3% | viability, T/C [13] 121% | viability, T/C [14] 102% | viability, T/C [15] 83.1% | viability, T/C [16] 105% | viability, T/C [17] 86.9% | viability, T/C [18] 93.2% | viability, T/C [19] 109% | viability, T/C [20] 97.1% | viability, T/C [21] 109% | viability, T/C [22] 97.1% | viability, T/C [23] 114% | viability, T/C [24] 86.6% | viability, T/C [25] 111% | viability, T/C [26] 87.3% | viability, T/C [27] 119% | viability, T/C [28] 99.5% | viability, T/C [29] 86.7% | viability, T/C [30] 115% | viability, T/C [31] 99% | viability, T/C [32] 93.7% | viability, T/C [33] 117% | viability, T/C [34] 115% | viability, T/C [35] 105% | viability, T/C [36] 123%
